According to patent US5892063A (Hauser, Inc., priority 1997, dated 1999):

Tests used:
MOLT-4 = assay: SRB growth screen, leukemia MOLT-4; conditions: Homo sapiens, MOLT-4, 48 h
U251 = assay: SRB growth screen, CNS cancer U251; conditions: Homo sapiens, U-251, 48 h
UACC-62 = assay: SRB growth screen, melanoma UACC-62; conditions: Homo sapiens, UACC-62, 48 h, read-out: Log10 LC50 (converted)
KM12 = assay: SRB growth screen, colon cancer KM12; conditions: Homo sapiens, KM12, 48 h
LOX-IMVI = assay: SRB growth screen, melanoma LOX-IMVI; conditions: Homo sapiens, 48 h
UACC-257 = assay: SRB growth screen, melanoma UACC-257; conditions: Homo sapiens, UACC-257, 48 h
A498 = assay: SRB growth screen, renal cancer A498; conditions: Homo sapiens, A498, 48 h, read-out: Log10 LC50 (converted)
786-0 = assay: SRB growth screen, renal cancer 786-0; conditions: Homo sapiens, 786-0, 48 h
SN12C = assay: SRB growth screen, renal cancer SN12C; conditions: Homo sapiens, 48 h
TK-10 = assay: SRB growth screen, renal cancer TK-10; conditions: Homo sapiens, TK-10, 48 h
UO-31 = assay: SRB growth screen, renal cancer UO-31; conditions: Homo sapiens, UO-31, 48 h
HCT-15 = assay: SRB growth screen, colon cancer HCT-15; conditions: Homo sapiens, HCT-15, 48 h
T-47D = assay: SRB growth screen, breast cancer T-47D; conditions: Homo sapiens, T47D, 48 h
HCT-116 = assay: SRB growth screen, colon cancer HCT-116; conditions: Homo sapiens, HCT-116, 48 h
RXF-393 = assay: SRB growth screen, renal cancer RXF-393; conditions: Homo sapiens, RXF 393, 48 h
PC-3 = assay: SRB growth screen, prostate cancer PC-3; conditions: Homo sapiens, PC-3, 48 h
COLO 205 = assay: SRB growth screen, colon cancer COLO 205; conditions: Homo sapiens, COLO 205, 48 h, read-out: Log10 LC50 (converted)
HCC-2998 = assay: SRB growth screen, colon cancer HCC-2998; conditions: Homo sapiens, HCC 2998, 48 h
OVCAR-4 = assay: SRB growth screen, ovarian cancer OVCAR-4; conditions: Homo sapiens, OVCAR-4, 48 h
OVCAR-8 = assay: SRB growth screen, ovarian cancer OVCAR-8; conditions: Homo sapiens, OVCAR-8, 48 h
DU-145 = assay: SRB growth screen, prostate cancer DU-145; conditions: Homo sapiens, DU-145, 48 h
MDA-MB-231/ATCC = assay: SRB growth screen, breast cancer MDA-MB-231/ATCC; conditions: Homo sapiens, MDA-MB-231, 48 h
NCI-H460 = conditions: Homo sapiens, NCI-H460, 48 h, read-out: Log10 LC50 (converted)
NCI-H522 = conditions: Homo sapiens, NCI-H522, 48 h
[1] = read-out: Log10 LC50 (converted)
[2] = read-out: Log10 GI50 (converted)

## CC(=O)O[C@H]1C(=O)[C@@]2(C)[C@H]([C@H](OC(=O)c3ccccc3)[C@]3(O)C[C@H](OC(=O)[C@H](O)[C@@H](NC(=O)c4ccccc4)c4ccccc4)C(C)=C1C3(C)C)[C@]1(OC(C)=O)CO[C@@H]1C[C@@H]2O [Paclitaxel, paclitaxel, reference compound]
MOLT-4; [1]
  CC50: > 100 µM
MOLT-4; read-out: Log10 TGI
  IC (TGI): > 100 µM
U251; [1]
  CC50: 70.8 µM
U251; read-out: Log10 TGI
  IC (TGI): 47.9 µM
UACC-62
  CC50: 64.6 µM
KM12; [1]
  CC50: > 100 µM
KM12; read-out: Log10 TGI
  IC (TGI): 43.7 µM
LOX-IMVI; [1]
  CC50: > 70.8 µM
LOX-IMVI; read-out: Log10 TGI
  IC (TGI): 22.4 µM
UACC-257; [1]
  CC50: 93.3 µM
UACC-257; read-out: Log10 TGI
  IC (TGI): 30.2 µM
A498
  CC50: 74.1 µM
786-0; [1]
  CC50: > 100 µM
786-0; read-out: Log10 TGI
  IC (TGI): > 100 µM
SN12C; [1]
  CC50: > 100 µM
SN12C; read-out: Log10 TGI
  IC (TGI): 91.2 µM
TK-10; [1]
  CC50: > 100 µM
TK-10; read-out: Log10 TGI
  IC (TGI): > 100 µM
UO-31; [1]
  CC50: > 100 µM
UO-31; read-out: Log10 TGI
  IC (TGI): 51.3 µM
HCT-15; [2]
  GI50: 0.427 µM
HCT-15; [1]
  CC50: > 100 µM
HCT-15; read-out: Log10 TGI
  IC (TGI): > 100 µM
T-47D; [2]
  GI50: 0.000155 µM
T-47D; [1]
  CC50: > 100 µM
HCT-116; [2]
  GI50: < 0.1 pM
HCT-116; [1]
  CC50: > 100 µM
HCT-116; read-out: Log10 TGI
  IC (TGI): 15.1 µM
RXF-393; [1]
  CC50: 35.5 µM
RXF-393; read-out: Log10 TGI
  IC (TGI): 12.6 µM
PC-3; [1]
  CC50: > 100 µM
PC-3; read-out: Log10 TGI
  IC (TGI): > 100 µM
COLO 205
  CC50: > 38.9 µM
HCC-2998; [1]
  CC50: 55 µM
HCC-2998; read-out: Log10 TGI
  IC (TGI): 17 µM
OVCAR-4; [2]
  GI50: 10 µM
OVCAR-4; [1]
  CC50: > 100 µM
OVCAR-4; read-out: Log10 TGI
  IC (TGI): 64.6 µM
OVCAR-8; [2]
  GI50: 0.0178 nM
OVCAR-8; [1]
  CC50: > 100 µM
DU-145; [1]
  CC50: > 100 µM
DU-145; read-out: Log10 TGI
  IC (TGI): > 100 µM
MDA-MB-231/ATCC; [1]
  CC50: 51.3 µM
MDA-MB-231/ATCC; read-out: Log10 TGI
  IC (TGI): 14.5 µM
NCI-H460
  CC50: > 100 µM
NCI-H522; [2]
  GI50: < 0.1 pM
NCI-H522; [1]
  CC50: > 100 µM
NCI-H522; read-out: Log10 TGI
  IC (TGI): 6.31 pM
